Laboratory results: US20250381198A1 (Melt Pharmaceuticals, Inc., priority 2024, published 2025)
Marks after values point to notes of the source that are not given here.

Test system: subjects undergoing cataract extraction with lens replacement (CELR)
Assay: Phase 3: adverse events (safety analysis set)
Type: in vivo, human
Description: The safety of MELT-300 was performed at baseline, in the course of surgery (intraoperatively), postoperatively on Day 1, and on Day 3+1 day post dose of study medication. Safety assessment included monitoring of AEs, vital sign measurements, and physical examinations.
An overview of adverse events (AEs) is provided in TABLE 57 for the safety analysis set. Reported data includes an overall summary of the presence of any AEs, treatment-emergent ocular adverse events (TEAEs), treatment-related TEAEs, TEAE of special interest (TEAESI), serious AEs (SEAs), and treatment-emergent SAEs (TESAE). Categories were not mutually exclusive. Results include the number of subjects, percent of subjects, and number of events in each category, respectively. A summary of treatment-emergence adverse events (TEAEs) by location, system organ class, and preferred term for the safety analysis set is provided in TABLE 58. A summary of treatment-related treatment-emergent adverse events (TRTEAEs) by system organ class, and preferred term for the safety analysis set is provided in TABLE 59. No SAEs (overall), TESAEs, or treatment-related TESAEs were observed. No SAEs resulting in death or discontinuation of the study was observed.

[1] = Location: Ocular, Safety analysis set
[2] = Location: Overall, Safety Analysis Set
[3] = Location: Overall, Safety analysis set

Cc1ncc2n1-c1ccc(Cl)cc1C(c1ccccc1F)=NC2 [Midazolam, 8-chloro-6-(2-fluorophenyl)-1-methyl-4H-imidazo[1,5-a][1,4]benzodiazepine]
1 #: Any Treatment-Related TEAESI, events [3] | TEAESI: Cardiovascular AEs, events [3] | TEAESI: Respiratory AEs, events [3]
1 (1.1) n (%): TEAESI: Cardiovascular AEs, subjects [1] | TEAESI: Respiratory AEs, subjects [1] | Any Treatment-Related TEAESI, subjects [3] | TEAESI: Cardiovascular AEs, subjects [3] | TEAESI: Respiratory AEs, subjects [3]
6 (6.7) n (%): Any Unexpected TEAE, subjects [3]
13 (14.6) n (%): Any TEAE, subjects [3]
0 n: TEAE: Abnormal sensation in eye [2] | TEAE: Amnesia [2] | TEAE: Anxiety [2] | TEAE: Back pain [2] | TEAE: Balance disorder [2] | TEAE: Blood pressure increased [2] | TEAE: Blood pressure systolic increased [2] | TEAE: Bradycardia [2] | TEAE: Corneal abrasion [2] | TEAE: Corneal oedema [2] | TEAE: Cough [2] | TEAE: Dental local anaesthesia [2] | TEAE: Diplopia [2] | TEAE: Dizziness [2] | TEAE: Fatigue [2] | TEAE: Gastrointestinal disorders (System Organ Class) [2] | TEAE: Glare [2] | TEAE: Hiccups [2] | TEAE: Hypertension [2] | TEAE: Hypoaesthesia oral [2] | TEAE: Infections and infestations (System Organ Class) [2] | TEAE: Injury, poisoning and procedural complications (System Organ Class) [2] | TEAE: Instillation site pain [2] | TEAE: Investigations (System Organ Class) [2] | TEAE: Lacrimation increased [2] | TEAE: Lethargy [2] | TEAE: Musculoskeletal and connective tissue disorders (System Organ Class) [2] | TEAE: Myalgia [2] | TEAE: Nasal Discomfort [2] | TEAE: Nausea [2] | TEAE: Neck pain [2] | TEAE: Ocular discomfort [2] | TEAE: Oxygen saturation decreased [2] | TEAE: Photophobia [2] | TEAE: Photopsia [2] | TEAE: Post procedural hypotension [2] | TEAE: Procedural nausea [2] | TEAE: Procedural pain [2] | TEAE: Procedural vomiting [2] | TEAE: Product after taste [2] | TEAE: Product issues (System Organ Class) [2] | TEAE: Psychiatric disorders (System Organ Class) [2] | TEAE: Pyrexia [2] | TEAE: Sinusitis [2] | TEAE: Surgical and medical procedures (System Organ Class) [2] | TEAE: Taste disorder [2] | TEAE: Vascular disorders (System Organ Class) [2] | TEAE: Visual field defect [2] | TEAE: Visual impairment [2] | Treatment-related TEAE: Anxiety (Safety Analysis Set) | Treatment-related TEAE: Blood pressure increased (Safety Analysis Set) | Treatment-related TEAE: Bradycardia (Safety Analysis Set) | Treatment-related TEAE: Cardiac disorders (System Organ Class) (Safety Analysis Set) | Treatment-related TEAE: Dental local anaesthesia (Safety Analysis Set) | Treatment-related TEAE: Dizziness (Safety Analysis Set) | Treatment-related TEAE: Eye disorders (System Organ Class) (Safety Analysis Set) | Treatment-related TEAE: Hiccups (Safety Analysis Set) | Treatment-related TEAE: Injury, poisoning and procedural complications (System Organ Class) (Safety Analysis Set) | Treatment-related TEAE: Investigations (System Organ Class) (Safety Analysis Set) | Treatment-related TEAE: Lethargy (Safety Analysis Set) | Treatment-related TEAE: Oxygen saturation decreased (Safety Analysis Set) | Treatment-related TEAE: Procedural nausea (Safety Analysis Set) | Treatment-related TEAE: Procedural vomiting (Safety Analysis Set) | Treatment-related TEAE: Product after taste (Safety Analysis Set) | Treatment-related TEAE: Product issues (System Organ Class) (Safety Analysis Set) | Treatment-related TEAE: Psychiatric disorders (System Organ Class) (Safety Analysis Set) | Treatment-related TEAE: Surgical and medical procedures (System Organ Class) (Safety Analysis Set) | Treatment-related TEAE: Tachycardia (Safety Analysis Set) | Treatment-related TEAE: Visual impairment (Safety Analysis Set)
4 #: Any Treatment-Related TEAE, events [3]
2 (2.2) n (%): Any TEAESI, subjects [3] | Any Treatment-Related TEAE, subjects [3]
2 #: Any TEAESI, events [3]
0 #: TEAESI: Abuse-related AEs, events [1] | TEAESI: Cardiovascular AEs, events [1] | TEAESI: Ketamine emergence delirium, events [1] | TEAESI: Neurocognitive AEs, events [1] | TEAESI: Oral/pharyngeal AEs, events [1] | TEAESI: Oversedation requiring the use of flumazenil, events [1] | TEAESI: Respiratory AEs, events [1] | Any Grade 3+ TEAE, events [3] | Any SAE, events [3] | Any TEAE Resulting in Death, events [3] | Any TEAE Resulting in Study Drug Interruption, events [3] | Any TEAE Resulting in Study Drug Withdrawal, events [3] | Any TESAE, events [3] | Any Treatment-Related TEAE Resulting in Death, events [3] | Any Treatment-Related TESAE, events [3] | Any Unexpected Treatment-Related TEAE, events [3] | TEAESI: Abuse-related AEs, events [3] | TEAESI: Ketamine emergence delirium, events [3] | TEAESI: Neurocognitive AEs, events [3] | TEAESI: Oral/pharyngeal AEs, events [3] | TEAESI: Oversedation requiring the use of flumazenil, events [3]
24 #: Any AE, events [3]
9 #: Any Unexpected TEAE, events [3]
20 #: Any TEAE, events [3]
0 n (%): Any Unexpected Treatment-Related TEAE, subjects [1] | TEAESI: Abuse-related AEs, subjects [1] | TEAESI: Ketamine emergence delirium, subjects [1] | TEAESI: Neurocognitive AEs, subjects [1] | TEAESI: Oral/pharyngeal AEs, subjects [1] | TEAESI: Oversedation requiring the use of flumazenil, subjects [1] | Any Grade 3+ TEAE, subjects [3] | Any SAE, subjects [3] | Any TEAE Resulting in Death, subjects [3] | Any TEAE Resulting in Study Drug Interruption, subjects [3] | Any TEAE Resulting in Study Drug Withdrawal, subjects [3] | Any TESAE, subjects [3] | Any Treatment-Related TEAE Resulting in Death, subjects [3] | Any Treatment-Related TESAE, subjects [3] | Any Unexpected Treatment-Related TEAE, subjects [3] | TEAESI: Abuse-related AEs, subjects [3] | TEAESI: Ketamine emergence delirium, subjects [3] | TEAESI: Neurocognitive AEs, subjects [3] | TEAESI: Oral/pharyngeal AEs, subjects [3] | TEAESI: Oversedation requiring the use of flumazenil, subjects [3]
16 (18.0) n (%): Any AE, subjects [3]
